Biological target: Phosphatidylinositol 3-kinase regulatory subunit alpha/4,5-bisphosphate 3-kinase catalytic subunit delta isoform (Homo sapiens, UniProt P27986+O00329)
Assay: Inhibition of human full length PI3K p110delta/p85alpha using phosphatidylinositol […] as substrate measured after 30 mins by TR-FRET assay

Chain of Phosphatidylinositol 3-kinase regulatory subunit alpha/4,5-bisphosphate 3-kinase catalytic subunit delta isoform (P27986 whole entry, canonical isoform): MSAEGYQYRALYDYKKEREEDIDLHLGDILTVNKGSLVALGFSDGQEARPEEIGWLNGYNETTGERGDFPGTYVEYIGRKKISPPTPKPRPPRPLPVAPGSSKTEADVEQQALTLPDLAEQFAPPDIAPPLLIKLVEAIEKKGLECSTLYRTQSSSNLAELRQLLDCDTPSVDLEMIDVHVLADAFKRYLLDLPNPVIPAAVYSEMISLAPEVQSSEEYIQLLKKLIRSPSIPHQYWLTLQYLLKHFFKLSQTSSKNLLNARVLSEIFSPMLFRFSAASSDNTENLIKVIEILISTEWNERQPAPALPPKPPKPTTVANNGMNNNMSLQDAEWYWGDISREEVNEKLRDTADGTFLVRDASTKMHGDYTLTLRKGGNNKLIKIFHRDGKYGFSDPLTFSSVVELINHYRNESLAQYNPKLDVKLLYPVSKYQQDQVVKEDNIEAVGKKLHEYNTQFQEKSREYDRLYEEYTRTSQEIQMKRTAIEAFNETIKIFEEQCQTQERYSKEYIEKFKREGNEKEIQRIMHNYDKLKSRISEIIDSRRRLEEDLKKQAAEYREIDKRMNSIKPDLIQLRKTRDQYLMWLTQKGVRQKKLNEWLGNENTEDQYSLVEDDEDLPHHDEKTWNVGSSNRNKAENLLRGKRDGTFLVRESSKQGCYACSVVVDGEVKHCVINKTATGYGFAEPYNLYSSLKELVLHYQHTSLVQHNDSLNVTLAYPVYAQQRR
Chain of Phosphatidylinositol 3-kinase regulatory subunit alpha/4,5-bisphosphate 3-kinase catalytic subunit delta isoform (O00329 whole entry, canonical isoform): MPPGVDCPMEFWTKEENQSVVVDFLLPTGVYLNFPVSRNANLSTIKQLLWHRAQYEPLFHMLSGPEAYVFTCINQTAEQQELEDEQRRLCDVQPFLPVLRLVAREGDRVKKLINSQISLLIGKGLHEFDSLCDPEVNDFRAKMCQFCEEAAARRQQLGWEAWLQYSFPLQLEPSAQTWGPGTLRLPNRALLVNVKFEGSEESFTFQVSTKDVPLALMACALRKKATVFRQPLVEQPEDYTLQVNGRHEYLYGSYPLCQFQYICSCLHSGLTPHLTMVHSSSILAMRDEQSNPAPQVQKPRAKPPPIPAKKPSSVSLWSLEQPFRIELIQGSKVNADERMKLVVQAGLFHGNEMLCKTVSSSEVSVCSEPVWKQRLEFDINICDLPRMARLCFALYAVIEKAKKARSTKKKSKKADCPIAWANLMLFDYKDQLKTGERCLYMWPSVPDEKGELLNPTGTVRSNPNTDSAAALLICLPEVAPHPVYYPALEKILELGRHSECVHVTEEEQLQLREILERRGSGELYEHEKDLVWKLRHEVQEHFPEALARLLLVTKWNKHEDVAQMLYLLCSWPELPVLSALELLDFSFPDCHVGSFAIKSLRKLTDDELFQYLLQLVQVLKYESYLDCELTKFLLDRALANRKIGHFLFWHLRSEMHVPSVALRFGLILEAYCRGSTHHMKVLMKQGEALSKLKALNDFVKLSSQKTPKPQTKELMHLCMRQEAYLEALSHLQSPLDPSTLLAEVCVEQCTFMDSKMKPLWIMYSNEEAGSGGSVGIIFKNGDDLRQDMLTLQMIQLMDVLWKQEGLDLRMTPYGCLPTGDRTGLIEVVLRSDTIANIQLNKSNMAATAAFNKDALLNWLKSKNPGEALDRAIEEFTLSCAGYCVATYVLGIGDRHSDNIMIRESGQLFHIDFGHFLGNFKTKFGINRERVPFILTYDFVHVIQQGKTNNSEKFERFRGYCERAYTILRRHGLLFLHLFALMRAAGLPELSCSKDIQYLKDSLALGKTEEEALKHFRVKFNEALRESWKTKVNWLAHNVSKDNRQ

| SMILES | IC50 [nM] |
| --- | --- |
| C[C@H](Nc1nc(N)nc(N)c1C#N)c1nc2cccc(Cl)c2c(=O)n1-c1cccnc1 [US9221795, 1] | 0.6 |
| C[C@H](Nc1nc(N)nc(N)c1C#N)c1nc2cccc(Cl)c2c(=O)n1-c1cncc(Cl)c1 [US9221795, 13] | 8 |
| COc1cncc(-n2c([C@H](C)Nc3nc(N)nc(N)c3C#N)nc3cccc(Cl)c3c2=O)c1 [US9221795, 14] | 4 |
| C[C@H](Nc1nc(N)nc(N)c1C#N)c1nc2cccc(Cl)c2c(=O)n1-c1cncc(C2CC2)c1 [US9221795, 19] | 5 |
| C[C@H](Nc1nc(N)nc(N)c1C#N)c1nc2c(Cl)cccc2c(=O)n1-c1cccnc1 [US9221795, 22] | 6 |
| C[C@H](Nc1nc(N)nc(N)c1C#N)c1nc2c(F)ccc(Cl)c2c(=O)n1-c1cccnc1 [US9221795, 24] | 0.4 |
| C[C@H](Nc1nc(N)nc(N)c1C#N)c1nc2c(F)ccc(F)c2c(=O)n1-c1cccnc1 [US9221795, 25] | 8 |
| Cc1ccncc1-n1c([C@H](C)Nc2nc(N)nc(N)c2C#N)nc2cccc(Cl)c2c1=O [US9221795, 40] | 0.4 |

Reference: BindingDB's records for doi:10.1021/acs.jmedchem.6b01169 (Gilead Sciences, 2016)
